Data reported in patent US20110098314A1, “STATINS FOR THE TREATMENT OF OCULAR HYPERTENSION AND GLAUCOMA” (ALCON, INC., priority 2005, published 2011).

Tests used:
[1] = test system: intraocular pressure; assay: Acute IOP response in lasered (hypertensive) eyes of conscious cynomolgus monkeys; format: in vivo, cynomolgus monkey; settings: single topical ocular application of 300 μg; IOP at 1, 3 and 6 hours
Method: Acute IOP Response in Lasered (Hypertensive) Eyes of Conscious Cynomolgus Monkeys.
Intraocular pressure (IOP) was determined with an Alcon Pneumatonometer after light corneal anesthesia with 0.1% proparacaine. Eyes were washed with saline after each measurement. After a baseline IOP measurement, the test compound was instilled in one 30 μL aliquot to the right eyes only of nine cynomolgus monkeys. The vehicle was instilled in the right eyes of six additional animals. Subsequent IOP measurements were taken at 1, 3, and 6 hours.

[2] = Penetration of the cornea following topical ocular administration; format: in vivo
Text: The use of topical ocular administration is therefore strongly preferred in the present invention.

[3] = test system: CTGF gene expression in cultured human trabecular meshwork (TM) cells; assay: Inhibition of TGFβ2 stimulated CTGF gene expression (QPCR, CTGF/18S cDNA); format: cell-based
Method: FIGS. 1-3 are graphs setting forth the effects of statins on basal and TGFβ2-induced CTGF gene expression in cultured human trabecular meshwork cells.
The effectiveness of statins on CTGF gene expression in cultured human trabecular meshwork (TM) cells was studied. In these experiments, the CTGF/18S cDNA levels were measured by quantitative reverse-transcription PCR (QPCR) and compared.

[4] = test system: fibronectin secretion by GTM-3 cells; assay: Inhibition of TM fibronectin secretion (ELISA of cell supernatants); format: cell-based, human; settings: 24 h, FIG. 5
Method: (§1) FIG. 5 depicts bar graphs showing the effect of lovastatin on GTM-3 cell fibronectin secretion and viability. Transformed human trabecular meshwork (GTM-3) cells were incubated in the presence or absence of test agents in serum-free DMEM media for 24 h (37° C., 5% CO2). Cell supernatants were then assayed for fibronectin content by ELISA and cell monolayers were assayed for viability by neutral red uptake.
(§2) The effect of lovastatin on both basal (vehicle) and stimulated (TGF32) GTM-3 (a transformed human TM cell strain) secretion of fibronectin was tested. GTM-3 cells were incubated in the presence or absence of test agents in serum-free media for 24 h (37° C., 5% CO2), then changes in secreted fibronectin levels were determined by ELISA of cell supernatants. Neutral red uptake assays were performed on the remaining cell monolayers, in order to determine the effect of test agents on GTM-3 cell viability. […] Thus, by virtue of the ability to reduce the excessive accumulation of extracellular matrix (e.g. fibronectin), statins are useful in the treatment of glaucoma and to control or lower IOP.

[5] = test system: GTM-3 cells; assay: GTM-3 cell viability (neutral red uptake); format: cell-based, human; settings: 24 h, FIG. 5
Method: as §1, §2

[6] = test system: intraocular pressure; assay: IOP response in lasered (hypertensive) eyes of conscious cynomolgus monkeys following repeated dosing; format: in vivo, cynomolgus monkey
Method: Response in Lasered (Hypertensive) Eyes of Conscious Cynomolgus Monkeys Following Repeated Dosing.
In a further study, the intraocular pressure-lowering efficacy of lovastatin was measured in conscious ocular hypertensive monkeys using a five-dose, three-day study design. The test item was administered in one 30 μL aliquot to the lasered (unilateral laser trabeculoplasty) eye of eight animals. The vehicle was instilled in the lasered eyes of six additional animals as a control. Doses 1, 3, and 5 were instilled at 0900 hours on three consecutive days; doses 2 and 4 at 1630 hours on days 1 and 2. IOP was measured at 1, 3 and 6 hours after doses 1 and 5. IOP was also measured at 16 hours after dose 4. The percent change from time 0 baseline was determined for each animal for every IOP measurement.
There was an average reduction in IOP of 12.5% in the control group. In a subsequent study, wherein nine doses of lovastatin were administered over a five day period, IOP was reduced by up to 7.4%.

[7] = test system: intraocular pressure; settings: administered orally for at least one year; cited from earlier work
[8] = 1 hour after fifth topical ocular instillation of 300 μg
[9] = 3 hours after fifth topical ocular instillation of 300 μg
[10] = 6 hours after fifth topical ocular instillation of 300 μg

## CC(C)c1c(C(=O)Nc2ccccc2)c(-c2ccccc2)c(-c2ccc(F)cc2)n1CC[C@@H](O)C[C@@H](O)CC(=O)O (relative stereo) [atorvastatin, (βR,δR)-2-(4-fluorophenyl)-β,δ-dihydroxy-5-(1-methylethyl)-3-phenyl-4-[(phenylamino)carbonyl]-1H-Pyrrole-1-heptanoic acid]
[1]
  IOP lowering after single topical ocular application: did not significantly lower IOP
[2]
  ability to reach intraocular tissues via penetration of the cornea: do not readily penetrate the cornea

## CC(C)n1c(/C=C/[C@@H](O)C[C@@H](O)CC(=O)O)c(-c2ccc(F)cc2)c2ccccc21 (relative stereo) [fluvastatin, (3R,5S,6E)-rel-7-[3-(4-fluorophenyl)-1-(1-methylethyl)-1H-indol-2-yl]-3,5-dihydroxy-6-heptenoic acid]
[1]
  IOP lowering after single topical ocular application: did not significantly lower IOP

## CC[C@H](C)C(=O)O[C@H]1C[C@H](O)C=C2C=C[C@H](C)[C@H](CC[C@@H](O)CC(O)CC(=O)O)[C@H]21 (stereo in doubt) [pravastatin, (βR,δR,1S,2S,6S,8S,8aR)-1,2,6,7,8,8a-hexahydro-β,δ,6-trihydroxy-2-methyl-8-[(2S)-2-methyl-1-oxobutoxy]-1-naphthaleneheptanoic acid]
[1]
  IOP lowering after single topical ocular application: did not significantly lower IOP
[2]
  ability to reach intraocular tissues via penetration of the cornea: able to reach intraocular tissues via penetration of the cornea

## CC[C@H](C)C(=O)O[C@H]1C[C@@H](C)C=C2C=C[C@H](C)[C@H](CC[C@@H]3C[C@@H](O)CC(=O)O3)[C@H]21 [lovastatin, 2(S)-2-methyl-butanoic acid (1S,3R,7S,8S,8aR)-1,2,3,7,8,8a-hexahydro-3,7-dimethyl-8-[2-[(2R,4R)-tetrahydro-4-hydroxy-6-oxo-2H-pyran-2-yl]ethyl]-1-naphthalenyl ester]
[3]
  CTGF gene expression by cultured human TM cells: significantly reduce
[3]; dose-dependent, FIG. 3
  IC50: 75 nM
[4]; serum-free media
  TGFβ2-stimulated fibronectin secretion: suppressed
[4]; vehicle (basal)
  basal fibronectin secretion: suppression
[5]
  GTM-3 cell viability: without affecting cell viability
[1]
  IOP lowering after single topical ocular application: did not significantly lower IOP
[6]; [8]
  average IOP lowering: 8.3 mmHg
  average IOP lowering, percent change from baseline: 22.8%
[6]; [9]
  average IOP lowering: 8.1 mmHg
  average IOP lowering, percent change from baseline: 21.5%
[6]; [10]
  average IOP lowering: 9.5 mmHg
  average IOP lowering, percent change from baseline: 25.5%
[6]; subsequent study, nine doses over a five day period
  IOP reduction: up to 7.4%
[7]
  change in intraocular pressure in patients: no clinically significant change in intraocular pressure

## CC[C@H](C)C(=O)O[C@H]1CCC=C2C=C[C@H](C)[C@H](CC[C@@H]3C[C@@H](O)CC(=O)O3)[C@H]21 [mevastatin, (2S)-2-methyl butanoic acid (1S,7S,8S,8aR)-1,2,3,7,8,8a-hexahydro-7-methyl-8-[2-[(2R,4R)-tetrahydro-4-hydroxy-6-oxo-2H-pyran-2-yl]ethyl]-1-naphthalenyl ester]
[3]
  CTGF gene expression by cultured human TM cells: significantly reduce

## CCC(C)(C)C(=O)O[C@H]1C[C@@H](C)C=C2C=C[C@H](C)[C@H](CC[C@@H]3C[C@@H](O)CC(=O)O3)[C@H]21 [simvastatin, 2,2-dimethyl-butanoic acid (1S,3R,7S,8S,8aR)-1,2,3,7,8,8a-hexahydro-3,7-dimethyl-8-[2-[(2R,4R)-tetrahydro-4-hydroxy-6-oxo-2H-pyran-2-yl]ethyl]-1-naphthalenyl ester]
[3]
  CTGF gene expression by cultured human TM cells: significantly reduce
[7]
  change in intraocular pressure in patients: no clinically significant change in intraocular pressure
